The source of these data is article PMC8595825 (Journal of medicinal chemistry, 2021).

What is called half-life is how long it takes for the measured level to halve. The Vd is a proportionality between amount in the body and measured concentration, not a real space. By clearance is commonly meant the volume of plasma or blood freed of the substance per unit of time. What is called bioavailability is the share of a dose that reaches the circulation, judged against a reference dose that is usually intravenous.

The test system of one data set is pfurA promoter. The data set is classed as cell-based, Mycobacterium bovis BCG. Particulars: 0.5× to 2× MIC90, 24 h.
The subject of data set [1] is M. bovis BCG cell membrane. The data set is classed as cell-based, Mycobacterium bovis BCG. Particulars: 4× MIC90 (1.2 μM); for membrane depolarizing effect: after 8 h of exposure; for time at which red/green fluorescence ratio significantly decreased: coincided with onset of cell death.
For data set [2], the system named is M. bovis BCG. The data set is classed as cell-based, Mycobacterium bovis BCG.
For data set [3], the system named is M. bovis BCG cell membrane. Particulars: for membrane permeabilizing effect: 4× MIC90, after 8 h of exposure; for time at which permeabilization was observed: 4× MIC90, attributed to onset of cell death.
Another data set relates to piniBAC promoter. The data set is classed as cell-based, Mycobacterium bovis BCG. As to conditions: 0.4–25 μM, 24 h.
Data set [4] has as its system Vero (African Green Monkey kidney epithelial cells). Briefly: Cytotoxicity against mammalian Vero cells. It counts as cell-based. Particulars: IC50 Vero/MIC50 Mtb.
In data set [5] the test system is nutrient-starved M. tuberculosis H37Rv. The data set can be described thus: Loebel model, nutrient-starved nonreplicating cultures. It counts as cell-based, Mycobacterium tuberculosis H37Rv. Particulars: 40× MIC90 (64 μM); 7 days.
In data set [6] the test system is reactive oxygen species (ROS) in M. bovis BCG. It counts as cell-based, Mycobacterium bovis BCG. Particulars: for dose-dependent ROS production: 0.25×–2× MIC90, 90 min; for ROS levels at higher dose: 2× MIC90.
The next data set is described as follows: mini-Ames test. It counts as cell-based.
The test system of data set [7] is M. bovis BCG katG mutant strain. The data set is classed as cell-based, Mycobacterium bovis BCG.
Data set [8] can be described thus: Metabolic stability in rat microsomes. It counts as in vitro ADME.
Data set [9] can be described thus: In vivo pharmacokinetics in mice. As to conditions: mouse; for bioavailability: po, 50 mg/kg.
The test system of data set [10] is M. bovis BCG. It counts as cell-based, Mycobacterium bovis BCG. This is another data set of the same source.
The test system of data set [11] is M. bovis BCG. The data set is classed as cell-based, Mycobacterium bovis BCG. Particulars: N-acetylcysteine, TEMPO, thiourea.
The target of data set [12] is NDH2 in IMVs of M. smegmatis mc^2155 (Mycolicibacterium smegmatis, UniProt A0QYD6). The data set can be described thus: NADH oxidation in inverted membrane vesicles. It counts as biochemical. As to conditions: KCN, 20 mM.
Data set [13] deals with M. bovis BCG. The data set is classed as cell-based, Mycobacterium bovis BCG. As to conditions: 32 at its MIC90 + vitamin C 2.5 mM, 5 days.
For a further data set, the system named is M. smegmatis IMVs. The data set can be described thus: Transmembrane pH gradient dissipation in IMVs. The data set is classed as biochemical. As to conditions: 1 and 2 μM.
In data set [14] the test system is M. smegmatis mc^2155 IMVs. The data set can be described thus: Oxygen consumption and hydrogen peroxide production by IMVs. The data set is classed as biochemical.

Chain of NDH2 in IMVs of M. smegmatis mc^2155 (A0QYD6 1-457): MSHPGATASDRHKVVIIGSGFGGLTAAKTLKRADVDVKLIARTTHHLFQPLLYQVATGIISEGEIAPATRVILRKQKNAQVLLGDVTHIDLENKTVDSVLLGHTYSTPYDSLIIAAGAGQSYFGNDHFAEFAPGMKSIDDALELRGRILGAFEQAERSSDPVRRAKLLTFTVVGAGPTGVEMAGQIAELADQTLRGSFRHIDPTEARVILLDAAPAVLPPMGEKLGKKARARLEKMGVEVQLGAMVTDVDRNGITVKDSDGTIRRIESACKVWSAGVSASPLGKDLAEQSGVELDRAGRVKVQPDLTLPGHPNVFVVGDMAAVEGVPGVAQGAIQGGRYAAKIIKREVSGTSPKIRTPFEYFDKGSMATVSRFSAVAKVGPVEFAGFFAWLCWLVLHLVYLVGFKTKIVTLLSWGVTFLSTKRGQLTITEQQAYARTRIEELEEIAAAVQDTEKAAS

In the case of `CCCCCCCn1c2c([n+](CCCCC)c1C)C(=O)c1ccccc1C2=O.[Br-]` [compound 48], in the data set on pfurA promoter, the “pfurA activation (fluorescence)” value is “induced dose-dependent increases in fluorescence”. Also, in [1], the membrane depolarizing effect result was “Neither compound induced depolarizing or permeabilizing effects” and the “time at which red/green fluorescence ratio significantly decreased” value was 24 h. Further, in the data set with M. bovis BCG [2], the pMIC90 was greater than 0.5. Further, in data set [3], the membrane permeabilizing effect entry is given as “Neither compound induced depolarizing or permeabilizing effects” and the “time at which permeabilization was observed” value is recorded as 48 h. Also, the “piniBAC promoter activity (fluorescence)” value with piniBAC promoter was “no increase in fluorescence”. Also, the “SI (selectivity index)” value in data set [4] is greater than 25. Further, the “bactericidal effect, Loebel model” value in data set [5] is recorded as “substantially reduced CFUs to levels equivalent to or below the detection limit”. Moreover, the “dose-dependent ROS production” value in data set [6] is “duly observed”.
Turning to `CCCCCCn1c2c([n+](CCCCCC)c1C)C(=O)c1ccccc1C2=O.[Br-]` [compound 50], the pMIC90 in the data set on M. bovis BCG [2] is listed as greater than 0.5.
As for `CCCCn1c2c([n+](C3CCC4(CCCCC4)CC3)c1C)C(=O)c1ccccc1C2=O.[Br-]` [compound 61], the “pfurA activation (fluorescence)” value in the data set with pfurA promoter is given as “induced dose-dependent increases in fluorescence”. The “mutagenicity, mini-Ames test” value in “mini-Ames test” is recorded as “not mutagenic”. The “piniBAC promoter activity (fluorescence)” value in the data set on piniBAC promoter is “no increase in fluorescence”. In addition, the “activity against katG mutant strain” value in [7] is “a shift to lower MICs was not evident”. Moreover, the “dose-dependent ROS production” value in data set [6] is recorded as “duly observed”. The half-life in [8] is 0.333 to 0.383 h. In addition, in data set [9], the Vd was in the range of 27 to 35 L/kg, the clearance was 38 to 55 mL/min/kg, the half-life fell in the range of 7 to 10 h and the bioavailability was in the range of 1 to 2%.
Turning to `CCCCCC[n+]1c2c(n(CC(C)C)c1C)C(=O)c1ccccc1C2=O.[Br-]` [compound 34], the pMIC90 in the data set with M. bovis BCG [2] is listed as greater than 0.5.
For `CCCCCCn1c(C)nc2c1C(=O)c1ccccc1C2=O` [compound 72], the “pfurA activation (fluorescence)” value in the data set with pfurA promoter is “less evident”. Besides, the “ROS levels at higher dose” value in data set [6] is “increased ROS levels but not to the levels induced by the actives at comparable doses”.
For the molecule `NNC(=O)c1ccncc1` [isoniazid, reference compound], the “time-kill outcome, colony growth by Day 28” value with M. bovis BCG [10] (4× MIC90 (12.8 μM)) was “comparable to the drug-free cultures”. Besides, the “piniBAC promoter activity (fluorescence)” value with piniBAC promoter was “duly increased piniBAC promoter activity”. The “activity against katG mutant strain” value in data set [7] is “inactive against the mutant strain”.
For `CCCCCCCCn1c(C)nc2c1C(=O)c1ccccc1C2=O` [compound 73], the “pfurA activation (fluorescence)” value in the data set on pfurA promoter is listed as “less evident”. In data set [6], the “ROS levels at higher dose” value is given as “increased ROS levels but not to the levels induced by the actives at comparable doses”.
For the molecule `CCCCCCCC[n+]1c2c(n(CC(C)C)c1C)C(=O)c1ccccc1C2=O.[Br-]` [compound 35], in the data set on M. bovis BCG [2], the pMIC90 was greater than 0.5.
As for `CCCCCCCCn1c2c([n+](CCCC)c1C)C(=O)c1ccccc1C2=O.[Br-]` [compound 32], the “effect of antioxidants on growth inhibitory MIC BCG” value in the data set on M. bovis BCG [11] was “did not diminish the growth inhibitory potency”. The “pfurA activation (fluorescence)” value in the data set on pfurA promoter is “induced dose-dependent increases in fluorescence”. Moreover, in the data set on M. bovis BCG [10] (8× MIC90, 28 days), the time-kill outcome is “CFUs were not detected from day 21 onward”. In the data set “mini-Ames test”, the “mutagenicity, mini-Ames test” value is “not mutagenic”. Moreover, the “stimulation of NADH oxidation with cyanide” value in data set [12] is on record as “retained the ability to stimulate NADH oxidation”. Further, in data set [1], the membrane depolarizing effect entry is reported as “Neither compound induced depolarizing or permeabilizing effects” and the “time at which red/green fluorescence ratio significantly decreased” value stood at 48 h. In the data set with M. bovis BCG [13], the “Log10 CFU counts with vitamin C added” value is “nearly halved”. The molecule also gave a pMIC90 with M. bovis BCG [2] greater than 0.5. Also, in data set [3], the membrane permeabilizing effect entry was “Neither compound induced depolarizing or permeabilizing effects” and the “time at which permeabilization was observed” value came to 24 h. Also, the “piniBAC promoter activity (fluorescence)” value in the data set on piniBAC promoter is reported as “no increase in fluorescence”. Besides, the “SI (selectivity index)” value in data set [4] is on record as greater than 25. In addition, the “protonophore activity (pH gradient dissipation)” value in the data set with M. smegmatis IMVs is recorded as “only moderate rates of pH gradient dissipation”. Further, the “bactericidal effect, Loebel model” value in data set [5] is on record as “substantially reduced CFUs to levels equivalent to or below the detection limit”. The “oxygen consumption in IMVs energized by NADH compared to malate” value in [14] is recorded as ~ 1.8 fold. The “dose-dependent ROS production” value in [6] is “duly observed”. The molecule also registered a half-life in data set [8] of 0.333 to 0.383 h. In data set [9], this molecule displayed a volume of distribution (Vd) of 27 to 35 L/kg, a clearance of 38 to 55 mL/min/kg, a half-life of 7 to 10 h and a bioavailability of 1 to 2%.
